From ChEMBL document CHEMBL1909294, “Translating clinical findings into knowledge in drug safety evaluation--drug induced liver injury prediction system (DILIps)” (PLoS Comput Biol, 2011) come the findings set out here.

Data set [1] concerns Hepatotoxicity.
Data set [2] relates to Hepatotoxicity. The source holds these as a separate data set.
Data set [3] deals with Hepatotoxicity. The source holds these as a separate data set.
The test system of data set [4] is Hepatotoxicity. The source holds these as a separate data set.
The subject of data set [5] is Hepatotoxicity. This is another data set of the same source.
Data set [6] relates to Hepatotoxicity. This is another data set of the same source.
Data set [7] has as its system Hepatotoxicity. This is another data set of the same source.
For data set [8], the system named is Hepatotoxicity. The source holds these as a separate data set.
Data set [9] concerns Hepatotoxicity. This is another data set of the same source.
Data set [10] concerns Hepatotoxicity. This is another data set of the same source.
Data set [11] has as its system Hepatotoxicity. This is another data set of the same source.
The test system of data set [12] is Hepatotoxicity. This is another data set of the same source.
Data set [13] deals with Hepatotoxicity. The source holds these as a separate data set.
The subject of data set [14] is Hepatotoxicity. The source holds these as a separate data set.
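Throughout, for HepSE Combined Scores: combined hepatic side effect score as listed in the training data of the Drug Induced Liver Injury Prediction System (DILIps).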
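Throughout, for HepSE bilirubinemia: bilirubinemia hepatic side effect score drawn from the DILIps training data, a prediction system for drug-induced liver injury; call rule not given here.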
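Throughout, for HepSE cholecystitis: Cholecystitis-related hepatic side effect score drawn from the DILIps (drug-induced liver injury prediction) training data set; call rule not given here.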
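Throughout, for HepSE cholelithiasis: hepatic side effect score for cholelithiasis, drawn from the DILIps training data for predicting drug-induced liver injury; call rule not given here.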
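Throughout, for HepSE cirrhosis: cirrhosis hepatic side effect score taken from the DILIps (drug-induced liver injury prediction) training set; call rule not given here.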
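Throughout, for HepSE elevated liver function tests: hepatic side effect score for raised liver function tests, as recorded in the DILIps training set used for predicting drug-induced liver injury.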
Throughout, for HepSE hepatic failure: call rule not given here.
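Throughout, for HepSE hepatic necrosis: score of hepatic side effects for hepatic necrosis, drawn from the training data of DILIps, a prediction system for drug-induced liver injury; call rule not given here.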
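Throughout, for HepSE hepatitis: Hepatitis-related hepatic side effect score taken from the training data of DILIps, a prediction system for drug-induced liver injury; call rule not given here.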
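Throughout, for HepSE hepatomegaly: hepatic side effect score for hepatomegaly, taken from the training set of the DILIps drug-induced liver injury prediction system; call rule not given here.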
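Throughout, for HepSE jaundice: Jaundice-related hepatic side-effect score drawn from the training data of the DILIps (drug-induced liver injury prediction system); call rule not given here.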
Throughout, for HepSE liver disease: call rule not given here.
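Throughout, for HepSE liver fatty: hepatic side effect score for fatty liver, taken from the DILIps training set for predicting drug-induced liver injury; call rule not given here.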
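Throughout, for HepSE liver function tests abnormal: hepatic side effect score taken from the DILIps (drug-induced liver injury prediction system) training data, here covering abnormal liver function test findings.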

On to `CCCc1c2oc(C(=O)[O-])cc(=O)c2cc2c(=O)cc(C(=O)[O-])n(CC)c12.[Na+].[Na+]` [NEDOCROMIL SODIUM], for which, in the data set with Hepatotoxicity [1], the HepSE_bilirubinemia is on record as 0. In the data set on Hepatotoxicity [2], this molecule registered a HepSE_cholecystitis of 0. In the data set on Hepatotoxicity [3], this molecule displayed a HepSE_cholelithiasis of 0. Further, in the data set with Hepatotoxicity [4], the HepSE_cirrhosis was 0. Also, in the data set with Hepatotoxicity [5], the “HepSE_elevated liver function tests” value was 0. Moreover, the HepSE_hepatic failure in the data set with Hepatotoxicity [6] was determined as 0. In addition, the HepSE_hepatic necrosis in the data set with Hepatotoxicity [7] turned out to be 0. In the data set with Hepatotoxicity [8], the HepSE_hepatitis turned out to be 0. Moreover, the HepSE_hepatomegaly with Hepatotoxicity [9] was determined as 0. In the data set with Hepatotoxicity [10], this molecule had a HepSE_jaundice of 0. Moreover, the HepSE_liver disease in the data set on Hepatotoxicity [11] stood at 0. In addition, the HepSE_liver fatty in the data set on Hepatotoxicity [12] worked out at 0. Moreover, the “HepSE_liver function tests abnormal” value in the data set with Hepatotoxicity [13] is listed as 0. Moreover, the “HepSE_Combined Scores” value with Hepatotoxicity [14] worked out at 0.
As for `CC(C)NCC(O)c1cc(O)cc(O)c1` (stereo not given) [METAPROTERENOL], in the data set with Hepatotoxicity [1], the HepSE_bilirubinemia amounted to 0. The molecule further displayed a HepSE_cholecystitis in the data set with Hepatotoxicity [2] of 0. The HepSE_cholelithiasis with Hepatotoxicity [3] turned out to be 0. In the data set with Hepatotoxicity [4], this molecule showed a HepSE_cirrhosis of 0. Also, in the data set with Hepatotoxicity [5], the “HepSE_elevated liver function tests” value was found to be 0. For the same molecule, the HepSE_hepatic failure in the data set with Hepatotoxicity [6] is listed as 0. In the data set with Hepatotoxicity [7], this molecule displayed a HepSE_hepatic necrosis of 0. The HepSE_hepatitis in the data set with Hepatotoxicity [8] worked out at 0. The HepSE_hepatomegaly with Hepatotoxicity [9] amounted to 0. In the data set with Hepatotoxicity [10], this molecule had a HepSE_jaundice of 0. Also, in the data set on Hepatotoxicity [11], the HepSE_liver disease amounted to 0. The molecule also returned a HepSE_liver fatty in the data set with Hepatotoxicity [12] of 0. For the same molecule, the “HepSE_liver function tests abnormal” value in the data set with Hepatotoxicity [13] stood at 0. Further, the “HepSE_Combined Scores” value with Hepatotoxicity [14] came out at 0.
For `c1ccc(CC2=NCCN2)cc1` [TOLAZOLINE], the HepSE_bilirubinemia with Hepatotoxicity [1] came to 0. For the same molecule, the HepSE_cholecystitis in the data set on Hepatotoxicity [2] is listed as 0. In the data set with Hepatotoxicity [3], this molecule showed a HepSE_cholelithiasis of 0. In the data set on Hepatotoxicity [4], this molecule showed a HepSE_cirrhosis of 0. Further, the “HepSE_elevated liver function tests” value in the data set on Hepatotoxicity [5] is 0. This molecule also came in with a HepSE_hepatic failure in the data set on Hepatotoxicity [6] of 0. Besides, the HepSE_hepatic necrosis with Hepatotoxicity [7] amounted to 0. The molecule further yielded a HepSE_hepatitis with Hepatotoxicity [8] of 1. In the data set with Hepatotoxicity [9], this molecule registered a HepSE_hepatomegaly of 0. Also, the HepSE_jaundice in the data set on Hepatotoxicity [10] is 0. Also, in the data set on Hepatotoxicity [11], the HepSE_liver disease is 0. The same molecule yielded a HepSE_liver fatty in the data set on Hepatotoxicity [12] of 0. Also, in the data set with Hepatotoxicity [13], the “HepSE_liver function tests abnormal” value is given as 0. In addition, in the data set with Hepatotoxicity [14], the “HepSE_Combined Scores” value was 1.
As for `OCCOCCN1CCN(C2=Nc3ccccc3Sc3ccccc32)CC1` [QUETIAPINE], in the data set on Hepatotoxicity [1] (Liver), the HepSE_bilirubinemia is recorded as 0. The same molecule yielded a HepSE_cholecystitis in the data set on Hepatotoxicity [2] (Liver) of 0. Further, the HepSE_cholelithiasis in the data set with Hepatotoxicity [3] (Liver) is 0. Besides, the HepSE_cirrhosis in the data set with Hepatotoxicity [4] (Liver) is recorded as 0. Further, the “HepSE_elevated liver function tests” value in the data set on Hepatotoxicity [5] (Liver) amounted to 0. In addition, in the data set on Hepatotoxicity [6] (Liver), the HepSE_hepatic failure amounted to 0. In the data set with Hepatotoxicity [7] (Liver), this molecule gave a HepSE_hepatic necrosis of 0. Besides, in the data set on Hepatotoxicity [8] (Liver), the HepSE_hepatitis is 0. Also, in the data set on Hepatotoxicity [9] (Liver), the HepSE_hepatomegaly amounted to 0. The HepSE_jaundice in the data set on Hepatotoxicity [10] (Liver) was 0. In addition, the HepSE_liver disease in the data set with Hepatotoxicity [11] (Liver) is reported as 0. Moreover, in the data set on Hepatotoxicity [12] (Liver), the HepSE_liver fatty is listed as 0. For the same molecule, the “HepSE_liver function tests abnormal” value in the data set on Hepatotoxicity [13] (Liver) amounted to 0. The “HepSE_Combined Scores” value with Hepatotoxicity [14] (Liver) was found to be 0.
In the data set on Hepatotoxicity [1] (Liver), `OCC(S)CS` (stereo not given) [DIMERCAPROL] had a HepSE_bilirubinemia of 0. In addition, in the data set with Hepatotoxicity [2] (Liver), the HepSE_cholecystitis is on record as 0. The same molecule had a HepSE_cholelithiasis with Hepatotoxicity [3] (Liver) of 0. In the data set on Hepatotoxicity [4] (Liver), the HepSE_cirrhosis was determined as 0. Further, the “HepSE_elevated liver function tests” value in the data set with Hepatotoxicity [5] (Liver) was 0. This molecule came in with a HepSE_hepatic failure with Hepatotoxicity [6] (Liver) of 0. Besides, the HepSE_hepatic necrosis with Hepatotoxicity [7] (Liver) was 0. For the same molecule, the HepSE_hepatitis with Hepatotoxicity [8] (Liver) is listed as 0. The HepSE_hepatomegaly in the data set on Hepatotoxicity [9] (Liver) was found to be 0. In the data set on Hepatotoxicity [10] (Liver), the HepSE_jaundice is recorded as 0. In addition, the HepSE_liver disease in the data set on Hepatotoxicity [11] (Liver) was 0. Also, in the data set with Hepatotoxicity [12] (Liver), the HepSE_liver fatty is on record as 0. In addition, the “HepSE_liver function tests abnormal” value in the data set with Hepatotoxicity [13] (Liver) worked out at 0. In addition, the “HepSE_Combined Scores” value in the data set with Hepatotoxicity [14] (Liver) turned out to be 0.
`COc1c(N2C[C@@H]3CCCN[C@@H]3C2)c(F)cc2c(=O)c(C(=O)O)cn(C3CC3)c12` [MOXIFLOXACIN] returned a HepSE_bilirubinemia in the data set with Hepatotoxicity [1] of 1. In the data set with Hepatotoxicity [2], the HepSE_cholecystitis amounted to 0. For the same molecule, the HepSE_cholelithiasis in the data set on Hepatotoxicity [3] was 0. The same molecule displayed a HepSE_cirrhosis in the data set on Hepatotoxicity [4] of 0. Also, the “HepSE_elevated liver function tests” value in the data set with Hepatotoxicity [5] turned out to be 0. Besides, in the data set on Hepatotoxicity [6], the HepSE_hepatic failure was determined as 1. The molecule also came in with a HepSE_hepatic necrosis with Hepatotoxicity [7] of 0. This molecule also yielded a HepSE_hepatitis with Hepatotoxicity [8] of 1. This molecule showed a HepSE_hepatomegaly with Hepatotoxicity [9] of 0. The molecule also came in with a HepSE_jaundice in the data set with Hepatotoxicity [10] of 1. The HepSE_liver disease with Hepatotoxicity [11] is on record as 0. The same molecule came in with a HepSE_liver fatty with Hepatotoxicity [12] of 0. Besides, the “HepSE_liver function tests abnormal” value in the data set on Hepatotoxicity [13] is 1. Besides, the “HepSE_Combined Scores” value in the data set on Hepatotoxicity [14] is on record as 5.
For the molecule `Cc1cc2c(s1)Nc1ccccc1N=C2N1CCN(C)CC1` [OLANZAPINE], the HepSE_bilirubinemia with Hepatotoxicity [1] was determined as 1. Besides, the HepSE_cholecystitis in the data set with Hepatotoxicity [2] is on record as 0. For the same molecule, in the data set on Hepatotoxicity [3], the HepSE_cholelithiasis was determined as 0. The same molecule showed a HepSE_cirrhosis in the data set with Hepatotoxicity [4] of 0. Further, the “HepSE_elevated liver function tests” value in the data set with Hepatotoxicity [5] was found to be 0. Besides, the HepSE_hepatic failure with Hepatotoxicity [6] is 0. In the data set on Hepatotoxicity [7], this molecule returned a HepSE_hepatic necrosis of 0. This molecule also had a HepSE_hepatitis with Hepatotoxicity [8] of 1. Further, the HepSE_hepatomegaly with Hepatotoxicity [9] is listed as 0. This molecule also came in with a HepSE_jaundice in the data set with Hepatotoxicity [10] of 1. Besides, in the data set on Hepatotoxicity [11], the HepSE_liver disease turned out to be 0. Further, the HepSE_liver fatty with Hepatotoxicity [12] is given as 1. Moreover, the “HepSE_liver function tests abnormal” value in the data set on Hepatotoxicity [13] is listed as 0. In addition, the “HepSE_Combined Scores” value in the data set on Hepatotoxicity [14] stood at 4.
Consider `CN(C)CCOc1ccc(/C(=C(/CCCl)c2ccccc2)c2ccccc2)cc1` [TOREMIFENE], for which the HepSE_bilirubinemia in the data set with Hepatotoxicity [1] stood at 0. The HepSE_cholecystitis in the data set on Hepatotoxicity [2] was 0. In the data set on Hepatotoxicity [3], this molecule yielded a HepSE_cholelithiasis of 0. Besides, the HepSE_cirrhosis in the data set with Hepatotoxicity [4] was found to be 0. Moreover, in the data set on Hepatotoxicity [5], the “HepSE_elevated liver function tests” value is recorded as 0. The HepSE_hepatic failure with Hepatotoxicity [6] came out at 0. This molecule also yielded a HepSE_hepatic necrosis with Hepatotoxicity [7] of 0. This molecule showed a HepSE_hepatitis in the data set on Hepatotoxicity [8] of 0. Besides, the HepSE_hepatomegaly with Hepatotoxicity [9] is on record as 0. This molecule had a HepSE_jaundice in the data set on Hepatotoxicity [10] of 1. The molecule further came in with a HepSE_liver disease in the data set on Hepatotoxicity [11] of 0. Besides, the HepSE_liver fatty in the data set with Hepatotoxicity [12] was 0. Besides, the “HepSE_liver function tests abnormal” value in the data set with Hepatotoxicity [13] is reported as 1. Also, the “HepSE_Combined Scores” value with Hepatotoxicity [14] stood at 2.
In turn, `CN(C)CCc1c[nH]c2ccc(Cn3cncn3)cc12` [RIZATRIPTAN] yielded a HepSE_bilirubinemia in the data set on Hepatotoxicity [1] of 0. This molecule showed a HepSE_cholecystitis in the data set on Hepatotoxicity [2] of 0. This molecule also registered a HepSE_cholelithiasis in the data set with Hepatotoxicity [3] of 0. Moreover, the HepSE_cirrhosis in the data set with Hepatotoxicity [4] amounted to 0. Moreover, in the data set on Hepatotoxicity [5], the “HepSE_elevated liver function tests” value came to 0. In the data set on Hepatotoxicity [6], the HepSE_hepatic failure is given as 0. Besides, the HepSE_hepatic necrosis in the data set on Hepatotoxicity [7] amounted to 0. Also, the HepSE_hepatitis with Hepatotoxicity [8] is on record as 0. For the same molecule, in the data set on Hepatotoxicity [9], the HepSE_hepatomegaly was determined as 0. Moreover, the HepSE_jaundice with Hepatotoxicity [10] was found to be 0. Besides, in the data set on Hepatotoxicity [11], the HepSE_liver disease came out at 0. The same molecule yielded a HepSE_liver fatty in the data set on Hepatotoxicity [12] of 0. In the data set on Hepatotoxicity [13], the “HepSE_liver function tests abnormal” value is 0. Moreover, the “HepSE_Combined Scores” value with Hepatotoxicity [14] is on record as 0.
Regarding `CCc1nn(CCCN2CCN(c3cccc(Cl)c3)CC2)c(=O)n1CCOc1ccccc1` [NEFAZODONE], the HepSE_bilirubinemia in the data set with Hepatotoxicity [1] is 0. Besides, in the data set with Hepatotoxicity [2], the HepSE_cholecystitis is 0. This molecule had a HepSE_cholelithiasis in the data set on Hepatotoxicity [3] of 0. For the same molecule, the HepSE_cirrhosis with Hepatotoxicity [4] was found to be 0. In the data set on Hepatotoxicity [5], the “HepSE_elevated liver function tests” value turned out to be 0. Besides, the HepSE_hepatic failure with Hepatotoxicity [6] amounted to 0. In the data set with Hepatotoxicity [7], this molecule gave a HepSE_hepatic necrosis of 1. In the data set with Hepatotoxicity [8], the HepSE_hepatitis was determined as 1. Besides, the HepSE_hepatomegaly in the data set on Hepatotoxicity [9] was found to be 0. The same molecule displayed a HepSE_jaundice in the data set on Hepatotoxicity [10] of 0. Further, the HepSE_liver disease with Hepatotoxicity [11] was 0. The molecule further had a HepSE_liver fatty with Hepatotoxicity [12] of 0. The “HepSE_liver function tests abnormal” value in the data set on Hepatotoxicity [13] was found to be 1. For the same molecule, the “HepSE_Combined Scores” value with Hepatotoxicity [14] was determined as 3.
